# The NIST ThermoML archive (doi:10.1007/s10765-010-0766-0)
# “And” between values parts separate entries of the source, which are not always exact repeats. Equal values may be shown once. ± gives the expanded uncertainty stated by the source.
# Experiment: molar heat capacity at constant volume
# Settings: Liquid, Vacuum adiabatic calorimetry
smiles,measurement,setting,value
"FC(F)C(F)(F)OCC(F)(F)F [2,2,2-trifluoroethyl 1,1,2,2-tetrafluoroethyl ether]",molar heat capacity at constant volume,"342.15 K, 16809 kPa",207.06 ± 9.4 J/K/mol
same,molar heat capacity at constant volume,"342.15 K, 16812 kPa",204.66 ± 9.2 J/K/mol
same,molar heat capacity at constant volume,"343.15 K, 17505 kPa",207.06 ± 9.4 J/K/mol
same,molar heat capacity at constant volume,"343.15 K, 17508 kPa",209.46 ± 9.4 J/K/mol
same,molar heat capacity at constant volume,"344.15 K, 18201 kPa",208.46 ± 9.4 J/K/mol
same,molar heat capacity at constant volume,"344.15 K, 18203 kPa",206.86 ± 9.4 J/K/mol
same,molar heat capacity at constant volume,"345.15 K, 18896 kPa",207.66 ± 9.4 J/K/mol
same,molar heat capacity at constant volume,"345.15 K, 18898 kPa",208.46 ± 9.4 J/K/mol
same,molar heat capacity at constant volume,"346.15 K, 19590 kPa",208.86 ± 9.4 J/K/mol
same,molar heat capacity at constant volume,"346.15 K, 19592 kPa",209.46 ± 9.4 J/K/mol
same,molar heat capacity at constant volume,"347.15 K, 20282 kPa",208.46 ± 9.4 J/K/mol
same,molar heat capacity at constant volume,"347.15 K, 20287 kPa",209.26 ± 9.4 J/K/mol
same,molar heat capacity at constant volume,"348.15 K, 20974 kPa",209.86 ± 9.4 J/K/mol
same,molar heat capacity at constant volume,"348.15 K, 20978 kPa",208.06 ± 9.4 J/K/mol
same,molar heat capacity at constant volume,"349.15 K, 21666 kPa",210.06 ± 9.4 J/K/mol
same,molar heat capacity at constant volume,"349.15 K, 21671 kPa",208.66 ± 9.4 J/K/mol
same,molar heat capacity at constant volume,"350.15 K, 22357 kPa",208.66 ± 9.4 J/K/mol
same,molar heat capacity at constant volume,"350.15 K, 22360 kPa",209.86 ± 9.4 J/K/mol
same,molar heat capacity at constant volume,"351.15 K, 23047 kPa",209.86 ± 9.4 J/K/mol
same,molar heat capacity at constant volume,"351.15 K, 23050 kPa",209.26 ± 9.4 J/K/mol
same,molar heat capacity at constant volume,"352.15 K, 23735 kPa",210.86 ± 9.4 J/K/mol
same,molar heat capacity at constant volume,"352.15 K, 23739 kPa",210.46 ± 9.4 J/K/mol
same,molar heat capacity at constant volume,"353.15 K, 24423 kPa",210.26 ± 9.4 J/K/mol
same,molar heat capacity at constant volume,"353.15 K, 24426 kPa",208.06 ± 9.4 J/K/mol
same,molar heat capacity at constant volume,"354.15 K, 25110 kPa",210.86 ± 9.4 J/K/mol
same,molar heat capacity at constant volume,"354.15 K, 25114 kPa",212.46 ± 9.6 J/K/mol
same,molar heat capacity at constant volume,"355.15 K, 25797 kPa",211.06 ± 9.6 J/K/mol
same,molar heat capacity at constant volume,"355.15 K, 25801 kPa",209.46 ± 9.4 J/K/mol
same,molar heat capacity at constant volume,"356.15 K, 26482 kPa",211.86 ± 9.6 J/K/mol
same,molar heat capacity at constant volume,"356.15 K, 26486 kPa",212.66 ± 9.6 J/K/mol
same,molar heat capacity at constant volume,"357.15 K, 27166 kPa",211.26 ± 9.6 J/K/mol
same,molar heat capacity at constant volume,"357.15 K, 27171 kPa",210.26 ± 9.4 J/K/mol
same,molar heat capacity at constant volume,"358.15 K, 27851 kPa",212.26 ± 9.6 J/K/mol
same,molar heat capacity at constant volume,"358.15 K, 27855 kPa",211.46 ± 9.6 J/K/mol
same,molar heat capacity at constant volume,"359.15 K, 5632 kPa",208.86 ± 9.4 J/K/mol
same,molar heat capacity at constant volume,"359.15 K, 5637 kPa",212.66 ± 9.6 J/K/mol
same,molar heat capacity at constant volume,"359.15 K, 28535 kPa",212.86 ± 9.6 J/K/mol
same,molar heat capacity at constant volume,"359.15 K, 28538 kPa",210.46 ± 9.4 J/K/mol
same,molar heat capacity at constant volume,"360.15 K, 6174 kPa",219.66 ± 9.8 J/K/mol
same,molar heat capacity at constant volume,"360.15 K, 6180 kPa",217.06 ± 9.8 J/K/mol
same,molar heat capacity at constant volume,"360.15 K, 29217 kPa",214.06 ± 9.6 J/K/mol
same,molar heat capacity at constant volume,"360.15 K, 29220 kPa",212.66 ± 9.6 J/K/mol
same,molar heat capacity at constant volume,"361.15 K, 6718 kPa",218.26 ± 9.8 J/K/mol
same,molar heat capacity at constant volume,"361.15 K, 6724 kPa",216.66 ± 9.8 J/K/mol
same,molar heat capacity at constant volume,"361.15 K, 29899 kPa",213.46 ± 9.6 J/K/mol
same,molar heat capacity at constant volume,"361.15 K, 29902 kPa",211.26 ± 9.6 J/K/mol
same,molar heat capacity at constant volume,"362.15 K, 7261 kPa",215.86 ± 9.8 J/K/mol
same,molar heat capacity at constant volume,"362.15 K, 7266 kPa",216.46 ± 9.8 J/K/mol
same,molar heat capacity at constant volume,"363.15 K, 7803 kPa",218.26 ± 9.8 J/K/mol
same,molar heat capacity at constant volume,"363.15 K, 7809 kPa",215.46 ± 9.6 J/K/mol
same,molar heat capacity at constant volume,"364.15 K, 8346 kPa",219.06 ± 9.8 J/K/mol
same,molar heat capacity at constant volume,"364.15 K, 8350 kPa",216.06 ± 9.8 J/K/mol
same,molar heat capacity at constant volume,"365.15 K, 8888 kPa",216.66 ± 9.8 J/K/mol
same,molar heat capacity at constant volume,"365.15 K, 8892 kPa",215.86 ± 9.8 J/K/mol
same,molar heat capacity at constant volume,"366.15 K, 9430 kPa",217.86 ± 9.8 J/K/mol
same,molar heat capacity at constant volume,"366.15 K, 9434 kPa",216.86 ± 9.8 J/K/mol
same,molar heat capacity at constant volume,"367.15 K, 9971 kPa",217.46 ± 9.8 J/K/mol
same,molar heat capacity at constant volume,"367.15 K, 9976 kPa",214.46 ± 9.6 J/K/mol
same,molar heat capacity at constant volume,"368.15 K, 10512 kPa",219.06 ± 9.8 J/K/mol
same,molar heat capacity at constant volume,"368.15 K, 10516 kPa",216.46 ± 9.8 J/K/mol
same,molar heat capacity at constant volume,"369.15 K, 11053 kPa",221.26 ± 10 J/K/mol
same,molar heat capacity at constant volume,"369.15 K, 11057 kPa",217.06 ± 9.8 J/K/mol
same,molar heat capacity at constant volume,"370.15 K, 11593 kPa",218.86 ± 9.8 J/K/mol
same,molar heat capacity at constant volume,"370.15 K, 11598 kPa",217.46 ± 9.8 J/K/mol
same,molar heat capacity at constant volume,"371.15 K, 12133 kPa",218.66 ± 9.8 J/K/mol
same,molar heat capacity at constant volume,"371.15 K, 12137 kPa",218.86 ± 9.8 J/K/mol
same,molar heat capacity at constant volume,"372.15 K, 12673 kPa",218.86 ± 9.8 J/K/mol
same,molar heat capacity at constant volume,"372.15 K, 12677 kPa",215.86 ± 9.8 J/K/mol
same,molar heat capacity at constant volume,"373.15 K, 13212 kPa",219.66 ± 9.8 J/K/mol
same,molar heat capacity at constant volume,"373.15 K, 13216 kPa",217.86 ± 9.8 J/K/mol
same,molar heat capacity at constant volume,"374.15 K, 13752 kPa",219.46 ± 9.8 J/K/mol
same,molar heat capacity at constant volume,"374.15 K, 13756 kPa",217.66 ± 9.8 J/K/mol
same,molar heat capacity at constant volume,"375.15 K, 14290 kPa",217.86 ± 9.8 J/K/mol
same,molar heat capacity at constant volume,"375.15 K, 14294 kPa",219.06 ± 9.8 J/K/mol
same,molar heat capacity at constant volume,"376.15 K, 14828 kPa",220.86 ± 10 J/K/mol
same,molar heat capacity at constant volume,"376.15 K, 14831 kPa",218.86 ± 9.8 J/K/mol
same,molar heat capacity at constant volume,"377.15 K, 15366 kPa",220.06 ± 10 J/K/mol
same,molar heat capacity at constant volume,"377.15 K, 15369 kPa",218.46 ± 9.8 J/K/mol
same,molar heat capacity at constant volume,"378.15 K, 15904 kPa",218.46 ± 9.8 J/K/mol
same,molar heat capacity at constant volume,"378.15 K, 15906 kPa",219.66 ± 9.8 J/K/mol
same,molar heat capacity at constant volume,"379.15 K, 16441 kPa",218.86 ± 9.8 J/K/mol
same,molar heat capacity at constant volume,"379.15 K, 16443 kPa",219.86 ± 9.8 J/K/mol
same,molar heat capacity at constant volume,"380.15 K, 16977 kPa",219.26 ± 9.8 J/K/mol
same,molar heat capacity at constant volume,"380.15 K, 16980 kPa",219.46 ± 9.8 J/K/mol
same,molar heat capacity at constant volume,"381.15 K, 17514 kPa",219.26 ± 9.8 J/K/mol
same,molar heat capacity at constant volume,"381.15 K, 17515 kPa",217.26 ± 9.8 J/K/mol
same,molar heat capacity at constant volume,"382.15 K, 18050 kPa",219.86 ± 9.8 J/K/mol
same,molar heat capacity at constant volume,"382.15 K, 18051 kPa",219.66 ± 9.8 J/K/mol
same,molar heat capacity at constant volume,"383.15 K, 18585 kPa",221.26 ± 10 J/K/mol
same,molar heat capacity at constant volume,"383.15 K, 18586 kPa",221.46 ± 10 J/K/mol
same,molar heat capacity at constant volume,"384.15 K, 19120 kPa",220.66 ± 10 J/K/mol
same,molar heat capacity at constant volume,"384.15 K, 19121 kPa",222.06 ± 10 J/K/mol
same,molar heat capacity at constant volume,"385.15 K, 19655 kPa",218.86 ± 9.8 J/K/mol
same,molar heat capacity at constant volume,"385.15 K, 19656 kPa",220.66 ± 10 J/K/mol
same,molar heat capacity at constant volume,"386.15 K, 20189 kPa",221.06 ± 10 J/K/mol
same,molar heat capacity at constant volume,"387.15 K, 20723 kPa",223.66 ± 10 J/K/mol and 224.66 ± 10 J/K/mol
same,molar heat capacity at constant volume,"388.15 K, 21256 kPa",224.66 ± 10 J/K/mol and 224.06 ± 10 J/K/mol
same,molar heat capacity at constant volume,"389.15 K, 21789 kPa",225.66 ± 10 J/K/mol and 224.86 ± 10 J/K/mol
same,molar heat capacity at constant volume,"390.15 K, 22322 kPa",226.86 ± 10 J/K/mol and 224.86 ± 10 J/K/mol
same,molar heat capacity at constant volume,"391.15 K, 22854 kPa",224.66 ± 10 J/K/mol
same,molar heat capacity at constant volume,"391.15 K, 22855 kPa",228.46 ± 10 J/K/mol
same,molar heat capacity at constant volume,"392.15 K, 23385 kPa",225.06 ± 10 J/K/mol
same,molar heat capacity at constant volume,"392.15 K, 23386 kPa",227.06 ± 10 J/K/mol
same,molar heat capacity at constant volume,"393.15 K, 23917 kPa",228.26 ± 10 J/K/mol and 226.46 ± 10 J/K/mol
same,molar heat capacity at constant volume,"394.15 K, 24448 kPa",226.26 ± 10 J/K/mol and 223.66 ± 10 J/K/mol
same,molar heat capacity at constant volume,"395.15 K, 24978 kPa",226.66 ± 10 J/K/mol and 225.06 ± 10 J/K/mol
same,molar heat capacity at constant volume,"396.15 K, 25507 kPa",229.06 ± 10 J/K/mol
same,molar heat capacity at constant volume,"396.15 K, 25508 kPa",226.86 ± 10 J/K/mol
same,molar heat capacity at constant volume,"397.15 K, 26037 kPa",228.06 ± 10 J/K/mol
same,molar heat capacity at constant volume,"397.15 K, 26038 kPa",226.06 ± 10 J/K/mol
same,molar heat capacity at constant volume,"398.15 K, 26566 kPa",229.06 ± 10 J/K/mol
same,molar heat capacity at constant volume,"398.15 K, 26567 kPa",227.06 ± 10 J/K/mol
same,molar heat capacity at constant volume,"399.15 K, 27094 kPa",227.06 ± 10 J/K/mol
same,molar heat capacity at constant volume,"399.15 K, 27096 kPa",227.86 ± 10 J/K/mol
same,molar heat capacity at constant volume,"400.15 K, 27622 kPa",228.66 ± 10 J/K/mol
same,molar heat capacity at constant volume,"400.15 K, 27623 kPa",228.46 ± 10 J/K/mol
same,molar heat capacity at constant volume,"401.15 K, 28150 kPa",229.66 ± 10 J/K/mol
same,molar heat capacity at constant volume,"401.15 K, 28151 kPa",227.66 ± 10 J/K/mol
same,molar heat capacity at constant volume,"402.15 K, 28677 kPa",226.66 ± 10 J/K/mol
same,molar heat capacity at constant volume,"402.15 K, 28678 kPa",227.26 ± 10 J/K/mol
same,molar heat capacity at constant volume,"403.15 K, 29204 kPa",229.26 ± 10 J/K/mol
same,molar heat capacity at constant volume,"403.15 K, 29205 kPa",227.86 ± 10 J/K/mol
same,molar heat capacity at constant volume,"404.15 K, 29730 kPa",227.86 ± 10 J/K/mol
same,molar heat capacity at constant volume,"404.15 K, 29732 kPa",229.86 ± 10 J/K/mol
